The target of assay [1] is T1, equine serum butyrylcholinesterase (EqBuChE) (Equus caballus, UniProt P81908). Kind of assay: Anticholinesterase activity assay. Type of assay: biochemical, horse.
Assay [2] concerns the target T2, electric eel acetylcholinesterase (EeAChE) (Electrophorus electricus, UniProt O42275). Briefly: Anticholinesterase activity assay. It counts as biochemical.
In assay [3] the target is T1, equine serum butyrylcholinesterase (EqBuChE). Kind of assay: Enzymatic kinetic study. Type of assay: biochemical, horse.
Assay [4] deals with T2, electric eel acetylcholinesterase (EeAChE). Kind of assay: Enzymatic kinetic study. It counts as biochemical.

Molecules are shown by their SMILES. A value given as a limit tells only on which side of the number the result lay.

T2 sequence (O42275 24-633): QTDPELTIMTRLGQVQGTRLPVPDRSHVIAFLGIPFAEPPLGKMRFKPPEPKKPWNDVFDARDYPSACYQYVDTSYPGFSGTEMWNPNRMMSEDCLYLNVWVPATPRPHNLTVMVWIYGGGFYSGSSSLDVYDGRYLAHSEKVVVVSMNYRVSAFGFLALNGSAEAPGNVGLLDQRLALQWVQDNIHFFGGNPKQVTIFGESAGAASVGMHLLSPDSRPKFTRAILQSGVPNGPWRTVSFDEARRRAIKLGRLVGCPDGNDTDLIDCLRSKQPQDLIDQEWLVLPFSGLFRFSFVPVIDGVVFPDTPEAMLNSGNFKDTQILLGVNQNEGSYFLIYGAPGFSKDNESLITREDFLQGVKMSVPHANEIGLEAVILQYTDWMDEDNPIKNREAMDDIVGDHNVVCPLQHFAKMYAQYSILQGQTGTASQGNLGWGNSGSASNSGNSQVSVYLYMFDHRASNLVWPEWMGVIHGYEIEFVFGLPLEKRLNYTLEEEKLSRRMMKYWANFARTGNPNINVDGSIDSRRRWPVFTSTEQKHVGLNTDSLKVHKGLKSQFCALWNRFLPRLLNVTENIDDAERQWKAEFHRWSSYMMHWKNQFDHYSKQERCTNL
T1 sequence (P81908 whole entry): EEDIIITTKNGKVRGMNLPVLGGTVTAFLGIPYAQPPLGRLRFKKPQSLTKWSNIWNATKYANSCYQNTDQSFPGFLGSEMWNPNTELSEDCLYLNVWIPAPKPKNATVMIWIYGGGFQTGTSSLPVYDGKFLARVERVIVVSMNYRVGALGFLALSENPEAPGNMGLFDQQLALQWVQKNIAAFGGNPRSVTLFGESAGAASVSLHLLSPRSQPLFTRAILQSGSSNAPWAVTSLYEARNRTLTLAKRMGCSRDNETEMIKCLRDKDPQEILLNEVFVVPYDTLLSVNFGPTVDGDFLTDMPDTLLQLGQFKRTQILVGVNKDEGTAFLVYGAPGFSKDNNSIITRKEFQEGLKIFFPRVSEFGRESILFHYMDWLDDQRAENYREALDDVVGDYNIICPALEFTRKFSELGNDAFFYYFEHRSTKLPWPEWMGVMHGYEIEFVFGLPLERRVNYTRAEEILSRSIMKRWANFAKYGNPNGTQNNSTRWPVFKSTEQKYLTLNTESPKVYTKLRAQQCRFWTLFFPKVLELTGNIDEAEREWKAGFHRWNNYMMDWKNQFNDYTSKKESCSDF

`c1ccc(CN2CCN(CCCCCNc3nc(-c4ccccc4)n(-c4ccccc4)n3)CC2)cc1` [Compound 13c, N-(5-(4-benzylpiperazin-1-yl)pentyl)-1,5-diphenyl-1H-1,2,4-triazol-3-amine]: the concentration for half-maximal inhibition (IC50) in assay [1] stood at 1650 ± 59 nM; in assay [2] it was 11 ± 0.251 µM.

Take `c1ccc(CN2CCN(CCCCNc3nc(-c4ccccc4)n(-c4ccccc4)n3)CC2)cc1` [Compound 13b, N-(4-(4-benzylpiperazin-1-yl)butyl)-1,5-diphenyl-1H-1,2,4-triazol-3-amine]: the IC50 in assay [1] is 1630 ± 111 nM; in assay [2], 3.79 ± 0.061 µM.

Regarding `c1ccc(CN2CCN(CCCNc3nc(-c4ccccc4)n(-c4ccccc4)n3)CC2)cc1` [Compound 13a, N-(3-(4-benzylpiperazin-1-yl)propyl)-1,5-diphenyl-1H-1,2,4-triazol-3-amine], the “type of inhibition, BuChE” value in assay [3] was “mixed-type inhibition”. In addition, the “type of inhibition, AChE” value in assay [4] is “mixed-type inhibition”.

For `c1ccc(CN2CCN(CCCCCCNc3nc(-c4ccccc4)n(-c4ccccc4)n3)CC2)cc1` [Compound 13d, N-(6-(4-benzylpiperazin-1-yl)hexyl)-1,5-diphenyl-1H-1,2,4-triazol-3-amine], the IC50 came to 2210 ± 68 nM in assay [1] and 5.22 ± 0.188 µM in assay [2].

In the case of `Nc1nc(-c2ccccc2)n(-c2ccccc2)n1` [Compound 6a, 1,5-Diphenyl-1,2,4-triazol-3-amine], the “cholinesterase inhibition (BuChE), in words” value in assay [1] (at 30 μM) is recorded as “no significant cholinesterase inhibition”. Also, the inhibition at 30 µM in assay [1] (read-out: BuChE inhibition (class NA in IC50 column)) and in assay [2] (read-out: AChE inhibition (class NA in IC50 column)) was < 20% each time. In assay [2] (at 30 μM), the “cholinesterase inhibition (AChE), in words” value is recorded as “no significant cholinesterase inhibition”.

Usually IC50 stands for the point on the concentration scale where inhibition reaches its midpoint. Lower therefore signals greater potency. In general, inhibition refers to the drop in the measured response relative to a control, in per cent.

For the origin of these results see PMC9065794 (RSC Advances, 2019).
